Measurements taken from patent US20240058422A1, “GLUCAGON-LIKE PEPTIDE-1 RECEPTOR ANTAGONISTS” (INDIANA UNIVERSITY RESEARCH AND TECHNOLOGY CORPORATION, priority 2022, published 2024).
“Also recorded” adds a separate entry of the source. Read-outs that look alike come from different tables or passages of the source. Starred links: 1 amine or outer side, 2 acyl side, 3 side chain; linkers in the order of their positions; H or OH if unused. Non-standard residues stand in square brackets, D forms with d. Residues, ends and D or L forms follow the SMILES beside them. Groups on a side chain read outwards from the residue. No end group written: not given here. *: point of attachment. miniPEG = miniature polyethylene glycol spacer (mPEG); C18 diacid = O=C(O)CCCCCCCCCCCCCCCCC(=O)*; γGlu = O=C(O)[C@H](CCC(=O)[*:2])N[*:1]; Palmitoyl = CCCCCCCCCCCCCCCC(=O)*; pGlu = O=C1CC[C@@H](C(=O)O)N1

Tests used:
GLP-1R [1] = molecular target: T1, GLP-1R (Homo sapiens, UniProt P43220); experiment: IC50 nM; parameters: host or cells: HEK 293
Experimental: Table printed on a drawing sheet, Fig. 10
Head of the field: IC50 nM
Where the first naming reader finds the target: description_of_the_figure: as measured in an in vitro assay using GLP-1R over-expressing 293 cells
Target sequence in this assay (P43220 24-463 limits assumed): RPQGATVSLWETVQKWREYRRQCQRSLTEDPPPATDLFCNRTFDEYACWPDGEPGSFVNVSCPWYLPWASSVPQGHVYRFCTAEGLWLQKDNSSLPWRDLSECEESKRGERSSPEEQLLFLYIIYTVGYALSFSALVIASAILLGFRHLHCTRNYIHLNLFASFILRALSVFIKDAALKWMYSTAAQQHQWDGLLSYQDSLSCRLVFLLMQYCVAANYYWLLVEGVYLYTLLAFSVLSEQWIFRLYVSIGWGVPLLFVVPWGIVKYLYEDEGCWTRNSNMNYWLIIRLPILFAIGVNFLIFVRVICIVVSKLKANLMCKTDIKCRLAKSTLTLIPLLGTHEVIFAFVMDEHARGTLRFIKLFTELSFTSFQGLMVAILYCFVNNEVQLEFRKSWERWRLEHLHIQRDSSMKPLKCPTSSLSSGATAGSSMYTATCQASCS

mice [2] = experiment: Glucose tolerance test after subcutaneous GLP-1 antagonist; assay type: in vivo; conditions: s.c. antagonist, 4 h later i.p. glucose 1.5 g/kg, FIGS. 2A, 2B
Experimental: FIGS. 2A & 2B present data from a glucose tolerance test wherein mice are subcutaneously administered the GLP-1 antagonist followed four hours later by intraperitoneal administration of glucose (1.5 g glucose per kg body weight).
C57Bl/6 mice were obtained from Jackson Laboratories. Mice were single-or group-housed on a 12:12 h light-dark cycle at 22° C. with free access to food and water. All studies were approved by and performed according to the guidelines of the Institutional Animal Care and Use Committee of the University of Cincinnati.
For the determination of glucose tolerance, mice were subjected to 6 h of fasting and injected intraperitoneally with glucose. Injections consisted of 1.5 g glucose per kg body weight (25% w/v D-glucose (Sigma) in 0.9% w/v saline). Tail blood glucose levels (mg dL-1) were measured using a hand-held glucometer (FreeStyle Freedom Lite) before 0 min and at 15, 30, 60, and 120 min after injection.
Mice received a subcutaneous injection of peptide (in PBS) either 1, 4, 8, 24, 48, 72, or 120 at varying doses before being challenged with an IP injection of dipeptidyl peptidase-IV-protected Ex-4 (0.65 nmol kg-1). A GTT was performed fifteen minutes after the GLP-1 injection. Tail blood glucose values were obtained as described above.

GLP-1R [3] = molecular target: T1, GLP-1R; conditions: after site-specific acylation of the human-based antagonist; cited from earlier work
Target sequence in this assay (P43220 24-463, species assumed): as the sequence (P43220 24-463 limits assumed) above

GIP receptor = molecular target: T2, GIP receptor (Homo sapiens, UniProt P48546); conditions: GLP-1 receptor versus GIP receptor; cited from earlier work
T2 sequence (P48546 22-466): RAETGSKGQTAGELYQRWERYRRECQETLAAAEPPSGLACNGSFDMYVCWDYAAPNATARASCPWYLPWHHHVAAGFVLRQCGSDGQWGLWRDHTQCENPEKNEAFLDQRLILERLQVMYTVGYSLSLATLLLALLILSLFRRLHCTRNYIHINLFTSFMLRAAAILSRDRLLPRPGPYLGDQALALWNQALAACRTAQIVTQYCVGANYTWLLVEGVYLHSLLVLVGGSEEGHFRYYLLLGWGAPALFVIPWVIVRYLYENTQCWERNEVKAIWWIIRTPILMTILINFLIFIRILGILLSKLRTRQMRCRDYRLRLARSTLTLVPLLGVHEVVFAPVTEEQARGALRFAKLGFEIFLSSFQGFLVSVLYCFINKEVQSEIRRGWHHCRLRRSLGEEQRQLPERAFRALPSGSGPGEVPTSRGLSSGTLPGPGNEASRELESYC

mice [4] = experiment: Blood glucose levels in mice subcutaneously injected with GLP-1 antagonist; assay type: in vivo; conditions: s.c. 10, 30, 100, 300 nmol/kg, measured at 24, 48, 72 hrs, FIG. 8
From the text: over time, where X=C18-diacid and O=Lys(C18-diacid).

human GLP-1 receptor = human GLP-1 receptor (human, UniProt P43220 24-463); experiment: cell-based or functional assay

`CC[C@H](C)[C@H](NC(=O)[C@H](Cc1ccccc1)NC(=O)[C@H](CCC(=O)O)NC(=O)[C@H](CCCNC(=N)N)NC(=O)[C@@H](NC(=O)[C@H](C)NC(=O)[C@H](CCC(N)=O)NC(=O)[C@H](CCC(=O)O)NC(=O)[C@H](CCC(=O)O)NC(=O)[C@H](CC(C)C)NC(=O)[C@H](Cc1ccc(O)cc1)NC(=O)[C@H](CO)NC(=O)[C@H](CO)NC(=O)[C@@H](NC(=O)[C@H](CC(=O)O)NC(=O)CNC(=O)[C@H](CCCCNC(=O)CCCCCCCCCCCCCCCCC(=O)O)NC(=O)[C@@H]1CCC(=O)N1)C(C)C)C(C)C)C(=O)N[C@@H](C)C(=O)N[C@@H](Cc1c[nH]c2ccccc12)C(=O)N[C@@H](CC(C)C)C(=O)N[C@H](C(=O)N[C@@H](CCCNC(=N)N)C(=O)NCC(=O)NCC(=O)N1CCC[C@H]1C(=O)N[C@@H](CO)C(=O)N[C@@H](CO)C(=O)NCC(=O)N[C@@H](C)C(=O)N1CCC[C@H]1C(=O)N1CCC[C@H]1C(=O)N1CCC[C@H]1C(=O)N[C@@H](CO)C(=O)O)C(C)C` [compound 1417] ([pGlu]K(C18 diacid)GDVSSYLEEQAVREFIAWLVRGGPSSGAPPPS-OH) showed an IC50 (GLP-1R [1]) of 80 nM.

With “DVSRYLEEQAVREFIEWLVRGGPSSGAPPPSK[miniPEG-γE-C16]-OH (DVSRYLEEQAVREFIEWLVRGGPSSGAPPPSK([miniPEG-γGlu-Palmitoyl])-OH) [SEQ ID NO: 16]” the “GLP-1 antagonist activity in glucose tolerance test” value (mice [2]) was “full antagonist; also recorded: much higher potency than the GLP-1 antagonist Ex-9-40”.

In the case of “DVSSYLEEQAVREFIAWLVKGGPSSGAPPPSK[C16]-OH (DVSSYLEEQAVREFIAWLVKGGPSSGAPPPSK(Palmitoyl)-OH) [SEQ ID NO: 3]”, the “potency as a GLP-1 receptor antagonist” value (GLP-1R [3]) is listed as “increased potency” and the “selectivity relative to the GIP receptor” value (GIP receptor) is listed as 10 fold.

Molecule `CC[C@H](C)[C@H](NC(=O)[C@H](Cc1ccccc1)NC(=O)[C@H](CCC(=O)O)NC(=O)[C@H](CCCNC(=N)N)NC(=O)[C@@H](NC(=O)[C@H](C)NC(=O)[C@H](CCC(N)=O)NC(=O)[C@H](CCC(=O)O)NC(=O)[C@H](CCC(=O)O)NC(=O)[C@H](CC(C)C)NC(=O)[C@H](Cc1ccc(O)cc1)NC(=O)[C@H](CO)NC(=O)[C@H](CO)NC(=O)[C@@H](NC(=O)[C@H](CC(=O)O)NC(=O)[C@@H]1CCC(=O)N1)C(C)C)C(C)C)C(=O)N[C@@H](C)C(=O)N[C@@H](Cc1c[nH]c2ccccc12)C(=O)N[C@@H](CC(C)C)C(=O)N[C@H](C(=O)N[C@@H](CCCNC(=N)N)C(=O)NCC(=O)NCC(=O)N1CCC[C@H]1C(=O)N[C@@H](CO)C(=O)N[C@@H](CO)C(=O)NCC(=O)N[C@@H](C)C(=O)N1CCC[C@H]1C(=O)N1CCC[C@H]1C(=O)N1CCC[C@H]1C(=O)N[C@@H](CO)C(=O)N[C@@H](CCCCNC(=O)CCCCCCCCCCCCCCCCC(=O)O)C(=O)O)C(C)C` [compound 1418, Z DVSSYLEEQAVREFIAWLVRGGPSSGAPPPSO-acid] ([pGlu]DVSSYLEEQAVREFIAWLVRGGPSSGAPPPSK(C18 diacid)-OH) has an IC50 (GLP-1R [1]; read-out: IC50) of 67 nM.

Work on `CC[C@H](C)[C@H](NC(=O)[C@H](Cc1ccccc1)NC(=O)[C@H](CCC(=O)O)NC(=O)[C@H](CCCNC(=N)N)NC(=O)[C@@H](NC(=O)[C@H](C)NC(=O)[C@H](CCC(N)=O)NC(=O)[C@H](CCC(=O)O)NC(=O)[C@H](CCC(=O)O)NC(=O)[C@H](CC(C)C)NC(=O)[C@H](Cc1ccc(O)cc1)NC(=O)[C@H](CO)NC(=O)[C@H](CO)NC(=O)[C@@H](NC(=O)[C@H](CC(=O)O)NC(=O)CCCCCCCCCCCCCCCCC(=O)O)C(C)C)C(C)C)C(=O)N[C@@H](C)C(=O)N[C@@H](Cc1c[nH]c2ccccc12)C(=O)N[C@@H](CC(C)C)C(=O)N[C@H](C(=O)N[C@@H](CCCNC(=N)N)C(=O)NCC(=O)NCC(=O)N1CCC[C@H]1C(=O)N[C@@H](CO)C(=O)N[C@@H](CO)C(=O)NCC(=O)N[C@@H](C)C(=O)N1CCC[C@H]1C(=O)N1CCC[C@H]1C(=O)N1CCC[C@H]1C(=O)N[C@@H](CO)C(=O)O)C(C)C` [compound 1416] ({C18 diacid}-DVSSYLEEQAVREFIAWLVRGGPSSGAPPPS-OH) yielded an IC50 (GLP-1R [1]) of 36 nM.

With “X-DVSSYLEEQAVREFIAWLVRGGPSSGAPPPSO-acid [MBX 1407]” the glucose blood levels (mice [4]) was “dose dependent response”.

With XGDLSKQMEEEAVRLFIEWLKNGGPSSGAPPPS (dK at position 7 acylated with Peg2-gE(C16); C-terminal amide (-NH2)) [Ex9-39amide, dK7 (PEG2-γE(C16)), G8] the “IC50 (nM): block of cAMP induction by GLP-1 (0.05 nM), luciferase reporter in HEK 293 cells with human GLP-1 receptor” value (human GLP-1 receptor) was 6.2 nM.
